Our source for the IC50 values is patent publication US8088936B2, “Leukotriene B4 inhibitors” (Hoffman-La Roche Inc., priority 2009, dated 2012).

This assay concerns Human leukemia HL-60 cells endogenously expressing BLT1 and BLT2 receptors. Put plainly: Ca2+ flux assay for LTB4 antagonist assay (HL-60 FLIPR). It counts as cell-based. Conditions: retinoic acid induced HL-60 cells, inhibition of LTB4-induced Ca2+ flux, 30 min preincubation; read-out: LTB4 antagonism (HL-60 FLIPR). The method, then: Assay of Compounds for Inhibition of LTB4 Activity
Ca^2+Flux Assay for LTB4 Antagonist Assay
Human leukemia HL-60 cells endogenously expressing BLT1 and BLT2 receptors were cultured in RPMI-1640 medium supplemented with 20% fetal bovine serum, 2 mM glutamine, 100 U/ml penicillin and 100 ug/ml streptomycin.
Seventy two hours prior to experiment cells are counted using ViaCount reagent, centrifuged and resuspended at 2.0×10^5 cells/ml density with the complete growth media containing 1 μM Retinoic Acid (Sigma).
On a day of the experiment loading buffer (Calcium-3 Assay Kit, Molecular Devices) was prepared by dissolving the contents of one vial (Express Kit) into 500 ml Hank's Balanced Salt Solution containing 20 mM HEPES and 5 mM probenecid. Equal volume of the loading buffer was mixed with the replacement buffer (Hank's Balanced Salt Solution containing 20 mM HEPES, 0.05% BSA and 5 mM probenecid). Retinoic Acid induced HL-60 cells were counted using ViaCount reagent, centrifuged and resuspended at 2.0×10^6 cells/ml density with the loading buffer/replacement buffer, dispensed into 384 well black/clear microplates (Falcon) (25 μl/well) and placed in a 37° C./5% CO2 incubator for 1 hour.
During the incubation, test compounds were prepared at 6× the desired concentration in HBSS/20 mM HEPES/0.05% BSA as well as LTB4 (Biomol) was prepared at 2.2× concentration in HBSS/20 mM HEPES/0.5% BSA buffer.
After the incubation, both the cell and compound plates were brought to the FLIPR and 5 μl of the diluted compounds were transferred to the cell plates by the FLIPR. Plates were then incubated for 30 min at room temperature. After the ½ hour incubation, plates were returned to the FLIPR and 25 μl of 2.2×LTB4 was added to the cell plates. During the assay, fluorescence readings were taken simultaneously from all 384 wells of the cell plate every 1.5 seconds. Five readings were taken to establish a stable baseline, then 25 μl (LTB4) of sample was rapidly and simultaneously added to each well of the cell plate. The fluorescence was continuously monitored before, during and after sample addition for a total elapsed time of 100 seconds. Responses (increase in peak fluorescence) in each well following agonist addition was determined. The initial fluorescence reading from each well, prior to ligand stimulation, was used a zero baseline value for the data from that well. The responses are expressed as % inhibition of the neutral control (neural control: wells that received buffer plus DMSO but no test compound).
On the technique in general: A change in cytosolic calcium serves as a functional read-out for many receptors and channels.
Consider `COCc1cc(OCCCCCCc2cccc(OCCCC(=O)O)c2CCC(=O)O)cc(-c2ccc(S(C)(=O)=O)cc2)c1` [Example 24, 4-[2-(2-Carboxy-ethyl)-3-[6-(4′-methanesulfonyl-5-methoxymethyl-biphenyl-3-yloxy)-hexyl]-phenoxy]-butyric acid], for which the IC50 stood at 6.83 nM.
In the case of `O=C(O)CCCOc1cccc(CCCCCCOc2cc(C(=O)C3CCCC3)cc(-c3ccc4c(c3)OCO4)c2)c1CCC(=O)O` [Example 73, 4-[3-[6-(3-Benzo[1,3]dioxol-5-yl-5-cyclopentanecarbonyl-phenoxy)-hexyl]-2-(2-carboxy-ethyl)-phenoxy]-butyric acid], the IC50 was determined as 0.77 nM.
For `CCOc1cc(OCCCCCCc2cccc(OCCCC(=O)O)c2CCC(=O)O)cc(-c2ccc3scnc3c2)c1` [Example 56, 4-[3-{6-[3-Benzothiazol-5-yl-5-ethoxy-phenoxy]-hexyl}-2-(2-carboxy-ethyl)-phenoxy]-butyric acid] the value was 0.32 nM.
In the case of `CN(C)Cc1cc(OCCCCCCc2cccc(OCCCC(=O)O)c2CCC(=O)O)cc(-c2ccsc2)c1` [Example 31, 4-{2-(2-Carboxy-ethyl)-3-[6-(3-dimethylaminomethyl-5-thiophen-3-yl-phenoxy)-hexyl]-phenoxy}-butyric acid], the IC50 amounted to 0.11 nM.
As for `COCc1cc(OCCCCCCc2cccc(OCCCC(=O)O)c2CCC(=O)O)cc(-c2cccc(OC)c2)c1` [Example 19, 4-{2-(2-Carboxy-ethyl)-3-[6-(3′-methoxy-5-methoxymethyl-biphenyl-3-yloxy)-hexyl]-phenoxy}-butyric acid], the IC50 worked out at 9.44 nM.
On to `CCOc1cc(OCCCCCCc2cccc(OCCCC(=O)O)c2CCC(=O)O)cc(-c2ccc(S(C)(=O)=O)cc2)c1` [Example 51, 4-[2-(2-Carboxy-ethyl)-3-[6-(5-ethoxy-4′-methanesulfonyl-biphenyl-3-yloxy)-hexyl]-phenoxy]-butyric acid], for which the IC50 worked out at 2.1 nM.
The same measure for `CCOc1cc(OCCCCCCc2cccc(OCCCC(=O)O)c2CCC(=O)O)cc(-c2ccc3c(c2)OCCO3)c1` [Example 46, 4-[2-(2-Carboxy-ethyl)-3-{6-[3-(2,3-dihydro-benzo[1,4]dioxin-6-yl)-5-ethoxy-phenoxy]-hexyl}-phenoxy]-butyric acid]: 1.11 nM; for `O=C(O)CCCOc1cccc(CCCCCCOc2cc(OCC3CCCC3)cc(-c3cccc(F)c3)c2)c1CCC(=O)O` [Example 63, 4-[2-(2-Carboxy-ethyl)-3-[6-(5-cyclopentylmethoxy-3′-fluoro-biphenyl-3-yloxy)-hexyl]-phenoxy]-butyric acid]: 32.5 nM; for `CCC(=O)c1cc(OCCCCCCc2cccc(OCCCC(=O)O)c2CCC(=O)O)cc(-c2ccc3c(c2)OCO3)c1` [Example 71, 4-[3-[6-(3-Benzo[1,3]dioxol-5-yl-5-propionyl-phenoxy)-hexyl]-2-(2-carboxy-ethyl)-phenoxy]-butyric acid]: 0.4 nM.
The same measure for `O=C(O)CCCOc1cccc(CCCCCCOc2cc(OCC3CCCC3)cc(-c3ccsc3)c2)c1CCC(=O)O` [Example 62, 4-[2-(2-Carboxy-ethyl)-3-[6-(3-cyclopentylmethoxy-5-thiophen-3-yl-phenoxy)-hexyl]-phenoxy]-butyric acid]: 7.98 nM.
The same measure for `CCOc1cc(OCCCCCCc2cccc(OCCCC(=O)O)c2CCC(=O)O)cc(-c2ccnc(Cl)c2)c1` [Example 52, 4-[2-(2-Carboxy-ethyl)-3-[6-[3-(2-chloro-pyridin-4-yl)-5-ethoxy-phenoxy]-hexyl]-phenoxy]-butyric acid]: 6.94 nM; for `CCOCc1cc(OCCCCCCc2cccc(OCCCC(=O)O)c2CCC(=O)O)cc(-c2ccc(Cl)cc2)c1` [Example 28, 4-{2-(2-Carboxy-ethyl)-3-[6-(5-ethoxymethyl-4′-chloro-biphenyl-3-yloxy)-hexyl]-phenoxy}-butyric acid]: 6.51 nM; for `COCc1cc(OCCCCCCc2cccc(OCCCC(=O)O)c2CCC(=O)O)cc(-c2ccc(F)c(F)c2)c1` [Example 21, 4-[2-(2-Carboxy-ethyl)-3-[6-(3′,4′-difluoro-5-methoxymethyl-biphenyl-3-yloxy)-hexyl]-phenoxy]-butyric acid]: 2.66 nM.
